Measurements as given in ChEMBL document CHEMBL1806354 (J Med Chem, 2011).
Calls of active or inactive are those of the source. No cut-off for these calls is given here.

Experiments:
Rattus norvegicus [1] = assay: Antiparkinsonian activity in 6-hydroxydopamine lesioned Sprague-Dawley rat assessed as contralateral rotations at 1.5 mg/kg, ip measured every 5 mins for 6 hrs pretreated with D2 receptor antagonist 2 mg/kg of spiperone for 15 mins before compound challenge; type: functional, organism-based
Rattus norvegicus [2] = assay: Antiparkinsonian activity in 6-hydroxydopamine lesioned Sprague-Dawley rat assessed as contralateral rotations at 1.5 mg/kg, ip measured every 5 mins for 6 hrs pretreated with 5-HT1A receptor antagonist 0.1 mg/kg of WAY-100635 for 10 mins before compound challenge; type: functional, organism-based
Rattus norvegicus [3] = assay: Antiparkinsonian effect in 21 days L-DOPA treated Parkinson's disease rat model assessed as reduction in L-DOPA-induced dyskinesia at 0.5 to 1.5 mg/kg, ip administered 15 mins before L-DOPA challenge on day 23; type: functional, organism-based
Rattus norvegicus [4] = assay: Antiparkinsonian effect in Parkinson's disease rat model assessed as effect on contralateral rotations measured per 5 mins at 0.5 to 1.5 mg/kg, ip qd for 21 days; type: functional, organism-based
Rattus norvegicus [5] = assay: Antiparkinsonian effect in 6-hydroxydopamine lesioned Sprague-Dawley rat Parkinson's disease model assessed as inhibition of L-DOPA-enhanced FosB expression in striatum at 1.5 mg/kg administered qd for 21 days by Western blot analysis; type: functional, organism-based; parameters: dose 1.5 mg/kg
[6] = target: T1, 5-hydroxytryptamine receptor 1A (Rattus norvegicus) (UniProt P19327); assay: Decrease of 5HT1A receptor-mediated excitatory postsynaptic current amplitude in Sprague-Dawley rat median prefrontal cortex at 10 uM by whole-cell voltage clamp assay; type: tissue-based; parameters: scale not given: the % may be the effect or the level left
T1 sequence (whole entry): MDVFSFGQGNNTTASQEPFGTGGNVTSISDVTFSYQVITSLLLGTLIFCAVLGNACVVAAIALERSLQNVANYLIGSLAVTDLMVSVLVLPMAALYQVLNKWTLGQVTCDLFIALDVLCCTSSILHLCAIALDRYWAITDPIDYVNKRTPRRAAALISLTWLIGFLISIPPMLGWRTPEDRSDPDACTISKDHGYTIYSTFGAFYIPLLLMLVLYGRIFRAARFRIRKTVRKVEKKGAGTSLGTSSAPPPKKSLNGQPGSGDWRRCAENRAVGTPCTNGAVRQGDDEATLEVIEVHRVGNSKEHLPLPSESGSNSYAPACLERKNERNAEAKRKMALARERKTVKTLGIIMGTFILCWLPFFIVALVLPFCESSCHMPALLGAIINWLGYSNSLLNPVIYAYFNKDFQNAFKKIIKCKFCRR

[7] = target: T1, 5-hydroxytryptamine receptor 1A (Rattus norvegicus); assay: Effect on 5HT1A receptor-mediated pair pulse ratio in Sprague-Dawley rat median prefrontal cortex at 10 uM by whole-cell voltage clamp assay; type: tissue-based
[8] = target: T1, 5-hydroxytryptamine receptor 1A (Rattus norvegicus); assay: Decrease of 5HT1A receptor-mediated excitatory postsynaptic current amplitude in Sprague-Dawley rat median prefrontal cortex at 10 uM by whole-cell voltage clamp assay in presence of 10 uM of 5HT1A receptor antagonist WAY-100635; type: functional, tissue-based; parameters: scale not given: the % may be the effect or the level left
Rattus norvegicus [9] = assay: Toxicity in Parkinson's disease rat model of assessed as induction of dyskinesia at 0.5 to 1.5 mg/kg, ip qd for 21 days; type: organism-based; parameters: dose 0.5-1.5 mg/kg, route intraperitoneal; conditions: in vivo, 504 h
[10] = target: T2, 5-hydroxytryptamine receptor 1A (Homo sapiens, UniProt P08908); assay: Displacement of [3H]-8-OH-DPAT from 5-HT1A receptor expressed in CHO cells after 50 mins by beta liquid scintillation counter; type: cell-based
T2 sequence (P08908 whole entry): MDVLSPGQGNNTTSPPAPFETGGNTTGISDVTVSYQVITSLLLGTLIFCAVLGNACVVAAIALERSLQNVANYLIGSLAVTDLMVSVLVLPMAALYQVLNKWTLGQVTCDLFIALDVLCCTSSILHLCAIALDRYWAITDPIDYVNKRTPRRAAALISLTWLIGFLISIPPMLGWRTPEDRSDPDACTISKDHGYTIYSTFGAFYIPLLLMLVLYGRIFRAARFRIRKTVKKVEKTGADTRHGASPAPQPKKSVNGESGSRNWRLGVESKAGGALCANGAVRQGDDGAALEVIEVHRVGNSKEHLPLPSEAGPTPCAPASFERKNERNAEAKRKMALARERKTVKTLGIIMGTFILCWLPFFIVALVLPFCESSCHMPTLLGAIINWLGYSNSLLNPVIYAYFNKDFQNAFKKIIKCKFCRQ

[11] = target: T2, 5-hydroxytryptamine receptor 1A; assay: Agonist activity at 5-HT1A receptor expressed in CHO cells assessed as stimulation of [35S]GTPgammaS binding after 30 mins; type: functional, cell-based
[12] = target: T3, Alpha-1A adrenergic receptor (Homo sapiens, UniProt P35348); assay: Antagonist activity at adrenergic alpha1A receptor expressed in CHO cells assessed as inhibition of adrenaline-induced intracellular calcium level after 3 to 5 mins by Fluo-4/AM assay; type: functional, cell-based
T3 sequence (P35348 whole entry): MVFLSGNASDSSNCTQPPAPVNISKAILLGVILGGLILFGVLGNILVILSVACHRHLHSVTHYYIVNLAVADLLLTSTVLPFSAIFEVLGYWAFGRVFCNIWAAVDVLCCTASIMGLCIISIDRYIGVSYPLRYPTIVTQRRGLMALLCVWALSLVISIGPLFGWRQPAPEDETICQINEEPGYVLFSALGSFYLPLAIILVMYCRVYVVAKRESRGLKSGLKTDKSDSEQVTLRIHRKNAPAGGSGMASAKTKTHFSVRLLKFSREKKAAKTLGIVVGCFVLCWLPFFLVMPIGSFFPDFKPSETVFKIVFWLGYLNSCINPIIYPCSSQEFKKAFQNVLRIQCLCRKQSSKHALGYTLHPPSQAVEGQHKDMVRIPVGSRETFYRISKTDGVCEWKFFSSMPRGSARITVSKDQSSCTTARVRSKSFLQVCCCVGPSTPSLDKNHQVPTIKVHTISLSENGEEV

[13] = target: T4, Alpha-1D adrenergic receptor (Homo sapiens, UniProt P25100); assay: Antagonist activity at adrenergic Alpha-1D receptor expressed in HEK293 cells co-transfected with Galpha16 assessed as inhibition of adrenaline-induced intracellular calcium after 3 to 5 mins by Fluo-4/AM assay; type: functional, cell-based
T4 sequence (P25100 whole entry): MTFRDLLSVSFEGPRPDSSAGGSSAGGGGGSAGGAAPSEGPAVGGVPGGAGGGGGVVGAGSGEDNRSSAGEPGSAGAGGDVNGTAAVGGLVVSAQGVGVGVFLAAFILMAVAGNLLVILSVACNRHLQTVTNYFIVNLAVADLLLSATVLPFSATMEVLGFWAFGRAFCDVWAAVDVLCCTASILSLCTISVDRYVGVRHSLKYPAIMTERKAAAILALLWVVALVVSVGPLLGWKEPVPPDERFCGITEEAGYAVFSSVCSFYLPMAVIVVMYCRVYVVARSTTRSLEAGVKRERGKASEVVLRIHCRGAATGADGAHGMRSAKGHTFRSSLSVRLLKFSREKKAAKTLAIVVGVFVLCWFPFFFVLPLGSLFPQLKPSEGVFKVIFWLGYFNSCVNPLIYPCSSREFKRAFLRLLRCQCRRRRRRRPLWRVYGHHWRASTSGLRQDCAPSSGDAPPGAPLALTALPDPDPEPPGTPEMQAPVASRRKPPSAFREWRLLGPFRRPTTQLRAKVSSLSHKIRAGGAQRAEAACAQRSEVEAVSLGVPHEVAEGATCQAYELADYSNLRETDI

Rattus norvegicus [14] = assay: Antiparkinsonian activity in 6-hydroxydopamine lesioned Sprague-Dawley rat assessed as contralateral rotations at 0.5 to 1.5 mg/kg, ip measured every 5 mins for 6 hrs; type: functional, organism-based

Activity [6]: 63.8% | Activity [7]: 114% | Activity [8]: 99.4% | Ki [10]: 66 nM | EC50 [11]: 190 nM | IC50 [12]: > 10000 nM | IC50 [13]: > 10000 nM
SMILES: CCCN1CCc2cccc3c2[C@H]1Cc1cccc(OC(=O)CCCCC2CCSS2)c1-3 (some centres undefined)
Activity (Rattus norvegicus [1]): inactive | Activity (Rattus norvegicus [2]): Active | Activity (Rattus norvegicus [3]): inactive | Activity (Rattus norvegicus [4]): Active | Activity (Rattus norvegicus [5]): Active | Activity (Rattus norvegicus [9]): Non-toxic | Activity (Rattus norvegicus [14]): Active
